# In publication PMC13051451, “A Charge-Reversal Point Mutation Completely Depletes Flavin Chromophore from European Robin Cryptochrome 4a Protein” (The Journal of Physical Chemistry Letters, 2026):
# How the values were obtained:
# [1] = molecular target: T1, European robin Cryptochrome 4a (ErCry4a) (Erithacus rubecula, UniProt A0A2I4SZI9, R356E); test: native electrospray mass spectrometry; UV-vis absorption; type: binding; settings: co-purified FAD, noncovalent; 20 uM protein, 150 mM ammonium acetate, pH 8; no bound FAD detected (non-binder)
# T1 construct: anion exchange purified; monomer with minor dimer
# T1 sequence (A0A2I4SZI9 entry or part of it R356E): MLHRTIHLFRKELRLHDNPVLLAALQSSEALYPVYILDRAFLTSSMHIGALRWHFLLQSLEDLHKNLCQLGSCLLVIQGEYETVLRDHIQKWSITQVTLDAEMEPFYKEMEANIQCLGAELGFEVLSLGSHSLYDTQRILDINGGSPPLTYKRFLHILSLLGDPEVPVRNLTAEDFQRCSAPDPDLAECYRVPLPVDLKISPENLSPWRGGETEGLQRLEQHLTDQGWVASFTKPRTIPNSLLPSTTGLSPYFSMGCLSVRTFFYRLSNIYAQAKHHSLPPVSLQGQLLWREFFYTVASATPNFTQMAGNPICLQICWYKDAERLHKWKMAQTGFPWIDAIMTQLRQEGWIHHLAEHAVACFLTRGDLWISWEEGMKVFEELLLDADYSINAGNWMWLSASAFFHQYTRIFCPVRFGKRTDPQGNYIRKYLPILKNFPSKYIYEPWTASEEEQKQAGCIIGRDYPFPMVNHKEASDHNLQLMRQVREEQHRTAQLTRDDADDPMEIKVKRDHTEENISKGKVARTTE
# [2] = molecular target: T2, European robin Cryptochrome 4a (ErCry4a) (Erithacus rubecula, UniProt A0A2I4SZI9); test: as above; type: binding; settings: co-purified FAD, noncovalent; 20 uM protein, 150 mM ammonium acetate, pH 8
# T2 construct: anion exchange purified; monomer with minor dimer
# T2 sequence (A0A2I4SZI9 entry or part of it): as the sequence (A0A2I4SZI9 entry or part of it R356E) above, with E356R counted along it
structure (smiles),measurement,setting,value
Cc1cc2nc3c(=O)[nH]c(=O)nc-3n(C[C@H](O)[C@H](O)[C@H](O)COP(=O)(O)OP(=O)(O)OC[C@H]3O[C@@H](n4cnc5c(N)ncnc54)[C@H](O)[C@@H]3O)c2cc1C [flavin adenine dinucleotide],native electrospray mass spectrometry; UV-vis absorption,[1],The R356E mutant is detected exclusively without FAD
same,% of protein with FAD bound,[2],94%
